Results as given in US20070197591A1, “USE OF PALIPERIDONE FOR THE TREATMENT OF A MENTAL DISORDER IN A PSYCHIATRIC PATIENT WITH REDUCED HEPATIC FUNCTION” (priority 2005, published 2007).

Key:
[1] = Safety and tolerability of 1 mg IR paliperidone in healthy and hepatically-impaired subjects; type: in vivo, human
Method: Methodology: This was a single-dose, parallel-group, open-label, single-center, Phase I study of IR paliperidone in subjects having either normal or moderately impaired hepatic function. The groups, consisting of 10 subjects each, were demographically matched with respect to age, weight, sex, and ethnicity. The study consisted of a screening period of up to 3 weeks and an open-label, single-dose treatment period (Days 1 through 5). On Day 1, a single dose of 1 mg IR paliperidone oral solution was administered after a fast of at least 10 hours; subjects continued to fast for 4 hours following study drug administration. The 96-hour follow-up consisted of serial sample collection of blood and urine for pharmacokinetic analysis and safety and tolerability assessments. Subjects remained confined to the study site through the 72-hour pharmacokinetics sampling, and consumed standard institutional meals while in the study site. Subjects were released after the 72-hour sampling, then returned to the study site on Day 5 before the 96-hour pharmacokinetics sampling: end-of-study procedures were performed immediately hereafter. A blood sample for DNA isolation was collected to allow for genetic analysis as necessary. Safety: Adverse events, clinical laboratory tests, including prolactin, vital sign measurements, physical examinations, and 12-lad electrocardiograms (ECGs) were analyzed to assess safety. Safety: All subjects were analyzed; statistical analyses were description [? Does info need to be added here?].

[2] = Plasma protein binding / unbound fraction of paliperidone and its enantiomers; type: in vitro ADME, human; details: human
Source text: Objectives: The primary objective of this study was to investigate the single-dose pharmacokinetics of immediate-release (IR) paliperidone, after oral administration, in subjects having moderate hepatic impairment (“hepatically-impaired subjects”) compared with subjects having normal hepatic function (“healthy subjects”). The secondary objective was to document the plasma protein binding and disposition of the enantiomers of paliperidone. In addition, the tolerability and safety profile of IR paliperidone was compared between hepatically impaired subjects and healthy subjects. Criteria for Evaluation: Pharmacokinetics: Plasma and urine concentrations of the paliperidone enantiomers (+) R078543 and (−) R078544 were determined using an LC-MS/MS method. Concentrations of paliperidone were calculated as the sum of the enantiomer concentrations. In addition, serum and urine concentrations of creatinine were determined for the calculation of CLCR. The protein binding and unbound fraction was determined for the 2 paliperidone enantiomers. The unbound fraction for paliperidone was calculated.

[3] = hepatically-impaired subjects (n = 10)

fraction unbound ([2]; Healthy Subjects (n = 10)): 0.279
fraction unbound ([2]; Hepatically-Impaired Subjects (n = 10; paliperidone n = 8)): 0.353
relative increase in unbound fraction vs healthy subjects ([2]; vs healthy subjects, read-out: unbound fraction higher in hepatically-impaired subjects): ~0.27
SMILES: Cc1nc2n(c(=O)c1CCN1CCC(c3noc4cc(F)ccc34)CC1)CCCC2O (centres unmarked) [Paliperidone, paliperidone]
tolerability ([1]; 1 mg, healthy and hepatically-impaired subjects): tolerated equally well
clinically important abnormal ECG values (including QT values) ([1]; both groups): no subjects had clinically important abnormal ECG values
orthostatic hypotension ([1]; both groups): no subject in either group met the criteria for orthostatic hypotension
subjects with treatment-emergent increase in hepatic enzymes ([1]; healthy subjects): 1
subjects with increases in prolactin levels reported as adverse events ([1]; healthy subjects (n = 10)): 6
subjects with treatment-emergent increase in hepatic enzymes ([1]; hepatically-impaired subjects): 1
subjects reporting dizziness [1, 3]: 2
subjects with increases in prolactin levels reported as adverse events [1, 3]: 8
